Experimental data taken from patent US8372967B2, “Compounds and methods for modulating expression of GCCR” (Isis Pharmaceuticals, Inc., priority 2006, dated 2013).
Strand notation (5' to 3'): a small letter for the sugar, then the base; units joined by * are phosphorothioate-linked, units joined directly phosphodiester-linked; [ ] holds rarer units or linkages, { } end groups; capitals alone tell only the bases. e = 2'-O-(2-methoxyethyl) (MOE); l = locked nucleic acid (LNA); [5mC] = 5-methylcytosine; d = 2'-deoxy (DNA)

Experiments:
GCGR mRNA = GCGR mRNA levels in liver and estimated ED50, C57/BL6 mice, single i.p. dose of MOE and methyleneoxy BNA gapmers (Tables 44, 45); assay type: in vivo, mouse; details: liver
Description: Eight-week old male C57/BL6 mice (Jackson Laboratory, Bar Harbor, Me.) were administered a single dose of GCGR antisense compound by intraperitonel (i.p.) injection at a concentration of 10, 3.2, 1, and 0.32 μmol·kg. Each dose group consisted of four animals. Shown in Table 43 are the sequences, motifs and conjugates of the GCGR antisense compounds used in this study. Bolded residues indicate 2′-O-methoxyethyl (2′-MOE) modifications and the italicized residues indicate methyleneoxy (4′-CH2—O-2′) BNA modifications. All antisense compounds comprise phosphorothioate internucleoside linkages throughout and each cytosine is replaced with 5-methylcytosine. GCGR antisense compounds target published GCGR nucleic acids, including Genbank Accession No. BC031885.1 (SEQ ID NO: 7).
To determine whether the phenotypic changes shown above correlated with a decrease in GCGR mRNA, treated animals were evaluated for levels of target mRNA in liver by RT, real time PCR according to methods described herein. Table 44 show results from direct comparisons of the antisense compounds targeting GCGR nucleic acid for their effect on target expression. Results are expressed as percent of saline control.

monkey GCGR mRNA = assay: Antisense inhibition of GCGR in primary monkey hepatocytes (Table 80); assay type: cell-based; details: relative to untreated control cells
Description: Additional short antisense compounds targeted to a GCGR nucleic acid were tested for their effects on monkey GCGR mRNA in vitro. Cultured primary monkey hepatocytes were treated as described herein with 25, 50, 100 or 200 nM of short antisense compound. After the treatment period, RNA was isolated from the cells and GCGR mRNA levels were measured by quantitative real-time PCR, as described herein. GCGR mRNA levels were adjusted according to total RNA content as measured by RIBOGREEN®. Results are presented in Table 80 as percent reduction in GCGR mRNA, relative to untreated control cells.

[1] = HbA1c status in ZDF rat (Table 72); assay type: in vivo; details: ZDF rat, 400 nM/kg i.p. once a week
Description: ISIS 388625, 388626 and control oligo ISIS 388628 were analyzed for their effect on ZDF rat plasma glucose levels and HbA1c. The leptin receptor deficient Zucker diabetic fatty (ZDF) rat is a useful model for the investigation of type 2 diabetes. Diabetes develops spontaneously in these male rats at ages 8-10 weeks, and is associated with hyperphagia, polyuria, polydipsia, and impaired weight gain, symptoms which parallel the clinical symptoms of diabetes (Phillips M S, et al., 1996, Nat Genet. 13, 18-19). Six week old ZDF rats were injected intraperitoneally with short antisense compound at a dose of 400 nM/kg once a week for twelve weeks. Data are illustrated in Tables 71 and 72.

mouse SGLT2 mRNA [2] = assay: Mouse SGLT2 mRNA in kidney, additional 1-10-1 and 2-8-2 MOE gapmers (Table 68); assay type: in vivo; details: Balb/c mouse kidney
Description: 1-10-1 and 2-8-2 MOE gapmer short antisense compounds were designed to target different regions of the mouse SGLT2 RNA but have complementarity across species. […] All cytidine residues are 5-methylcytidines.
The short antisense compounds were analyzed for their effect on mouse SGLT2 mRNA levels in vivo. Data was taken from three experiments in which male 6-week old Balb/c mice were dosed twice per week for three weeks with 0.5, 0.1, or 0.02 umol/kg of either a 1-10-1 or 2-8-2 MOE gapmer given by intraperitoneal injection. Mice were sacrificed 48 hours following last administration and evaluated for SGLT2 levels in kidney. Target levels were determined by RT, real-time PCR as described by other examples herein. PCR results were normalized to an internal ISIS control.

mouse SGLT2 mRNA [3] = assay: Mouse SGLT2 mRNA in kidney, 1-10-1 MOE gapmers, Balb/c mice (Table 65); assay type: in vivo
Description: The short antisense compounds were analyzed for their effect on mouse SGLT2 mRNA levels. Data was taken from three experiments in which Male 6-week old Balb/c mice were dosed twice per week for two weeks with 450, 150, or 50 nmol/kg of one of the above 1-10-1 MOE gapmers given by intraperitoneal injection. Mice were sacrificed 48 hours following last administration and evaluated for SGLT2 mRNA levels in kidney. Target levels were determined by RT, real-time PCR as described by other examples herein. PCR results were normalized to an internal ISIS control.

rat SGLT2 mRNA = assay: Rat SGLT2 mRNA in kidney, 1-10-1 gapmers, 250 nmol/kg (Table 66); assay type: in vivo; details: 250 nmol/kg i.p. twice per week for three weeks, Sprague-Dawley rat kidney
Description: The effect of the above 1-10-1 gapmers (see Table 64 above) on rat SGLT2 mRNA levels. Data are taken from four experiments in which male Sprague-Dawley rats (170-200 g) were dosed twice per week for three weeks with 250 nmol/kg given by intraperitoneal injection. Rats were sacrificed 48 hours following last administration and evaluated for SGLT2 mRNA levels in kidney. Target levels were determined by RT, real-time PCR as described by other examples herein. PCR results were normalized to an internal ISIS control.

mouse SGLT2 mRNA [4] = assay: Mouse SGLT2 mRNA in kidney, MOE versus Methyleneoxy BNA gapmers (Table 69); assay type: in vivo; details: Balb/c mouse kidney
Description: The effect of ISIS 3796921-10-1 MOE gapmer and ISIS 3886252-8-2 MOE gapmer are compared with the effect of ISIS 3921701-10-1 Methyleneoxy BNA Gapmer and ISIS 3921732-8-2 Methyleneoxy BNA Gapmer (see Table 69) on mouse SGLT2 mRNA levels in vivo. Data are taken from three experiments in which male 6-week old Balb/c mice were dosed twice per week for three weeks with 5, 25 and 125 nmol/kg of either the ISIS 3796921-10-1 MOE gapmer or the ISIS 3886252-8-2 MOE gapmer given by intraperitoneal injection. Mice were sacrificed 48 hours following last administration and evaluated for SGLT2 mRNA levels in kidney. Target levels were determined by RT, real-time PCR as described by other examples herein. PCR results were normalized to an internal ISIS control. The data are expressed as percent change (“+” indicates an increase, “−” indicates a decrease) relative to saline treated animals and are illustrated in Table 69.

With “396147 (CTTGGGCATGCTCGTCAGTC; 5-10-5 MOE gapmer, chemistry not fully specified) [compound 396147]” the “GCGR mRNA levels” value (GCGR mRNA; 3.2 μmol/kg single i.p.) was 68% of saline control and the “GCGR mRNA levels” value (GCGR mRNA; 10 μmol/kg single i.p.) was 28% of saline control.
With “396145 (ATGGCTTCTCCATCATATCC; 5-10-5 MOE gapmer, chemistry not fully specified) [compound 396145]” the “GCGR mRNA levels” value (GCGR mRNA; 3.2 μmol/kg single i.p.) was 33% of saline control and the “GCGR mRNA levels” value (GCGR mRNA; 10 μmol/kg single i.p.) was 8% of saline control.
In the case of “327131 (antisense eA*eT*eG*dT*dT*dG*dG*d[5mC]*d[5mC]*dG*dT*eG*eG*eT) [compound 327131]”, the “percent reduction in GCGR mRNA” value (monkey GCGR mRNA; 25 nM) was 0%, the “percent reduction in GCGR mRNA” value (monkey GCGR mRNA; 50 nM) was −8% and the “percent reduction in GCGR mRNA” value (monkey GCGR mRNA; 100 nM) was −36%. The “percent reduction in GCGR mRNA” value (monkey GCGR mRNA; 200 nM) was −36%.
For “388628 (eT*eA*dG*d[5mC]*d[5mC]*dG*d[5mC]*d[5mC]*d[5mC]*dA*e[5mC]*eA) [compound 388628]”, the “Percentage HbA1c” value ([1]; Day 40) was 8.0%, the “Percentage HbA1c” value ([1]; Day 55) was 9.1% and the “Percentage HbA1c” value ([1]; Day 68) was 7.8%.
With “ISIS 379702 (eG*d[5mC]*dA*d[5mC]*dA*d[5mC]*dA*dG*d[5mC]*dT*dG*e[5mC])” the “% change in SGLT2 expression relative to saline” value (mouse SGLT2 mRNA [2]; 0.02 umol/kg i.p. twice per week for three weeks) was −40%, the “% change in SGLT2 expression relative to saline” value (mouse SGLT2 mRNA [2]; 0.1 umol/kg i.p. twice per week for three weeks) was −65% and the “% change in SGLT2 expression relative to saline” value (mouse SGLT2 mRNA [2]; 0.5 umol/kg i.p. twice per week for three weeks) was −70%. The “% change in SGLT2 expression relative to saline” value (mouse SGLT2 mRNA [3]; 50 nmol/kg i.p. twice per week for two weeks) was −52.5%, the “% change in SGLT2 expression relative to saline” value (mouse SGLT2 mRNA [3]; 150 nmol/kg i.p. twice per week for two weeks) was −72.5% and the “% change in SGLT2 expression relative to saline” value (mouse SGLT2 mRNA [3]; 450 nmol/kg i.p. twice per week for two weeks) was −75%. For the same substance, the “% change in SGLT2 expression relative to saline” value (rat SGLT2 mRNA) was −25%.
With “ISIS 392173: 2-8-2 Methyleneoxy BNA Gapmer, SGLT2 (lT*lG*dT*dT*d[5mC]*d[5mC]*dA*dG*d[5mC]*d[5mC]*l[5mC]*lA)” the “SGLT2 mRNA, percent change relative to saline treated animals” value (mouse SGLT2 mRNA [4]; 5 nmol/kg i.p. twice per week for three weeks) was −44%, the “SGLT2 mRNA, percent change relative to saline treated animals” value (mouse SGLT2 mRNA [4]; 25 nmol/kg i.p. twice per week for three weeks) was −57% and the “SGLT2 mRNA, percent change relative to saline treated animals” value (mouse SGLT2 mRNA [4]; 125 nmol/kg i.p. twice per week for three weeks) was −75%.
